Calls of active or inactive are those of the source. The calls are words filed in the database; no cut-off is given here.
What was measured:
Serine hydrolase RBBP9 [1] = target: T1, Serine hydrolase RBBP9 (Homo sapiens, UniProt O75884); test: Displacement of fluorophosphate-rhodamine from RBBP9 transfected in human HEK293T cells proteomes after 30 mins by SDS-PAGE gel fluorescence assay; format: cell-based, HEK-293T
Target sequence in this assay (O75884 whole entry): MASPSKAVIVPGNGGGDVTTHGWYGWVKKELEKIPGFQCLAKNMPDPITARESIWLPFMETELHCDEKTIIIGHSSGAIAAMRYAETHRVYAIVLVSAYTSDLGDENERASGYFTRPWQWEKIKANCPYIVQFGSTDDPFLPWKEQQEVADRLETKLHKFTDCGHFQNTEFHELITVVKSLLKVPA

Serine hydrolase RBBP9 [2] = target: T1, Serine hydrolase RBBP9; test: Displacement of fluorophosphate-rhodamine from RBBP9 transfected in human HEK293T cells proteomes at 20 uM after 30 mins by SDS-PAGE gel fluorescence assay; format: cell-based; settings: HEK-293T
Target sequence in this assay (O75884 whole entry, looked up): as the sequence (O75884 whole entry) above

Serine hydrolase RBBP9 [3] = target: T1, Serine hydrolase RBBP9; test: Displacement of fluorophosphate-rhodamine from RBBP9 transfected in human HEK293T cells proteomes at 7.9 uM after 30 mins by SDS-PAGE gel fluorescence assay; format: cell-based; settings: HEK-293T
Target sequence in this assay (O75884 whole entry, looked up): as the sequence (O75884 whole entry) above

Serine hydrolase RBBP9 [4] = target: T1, Serine hydrolase RBBP9; test: Displacement of phenylsulphonate-rhodamine from RBBP9 transfected in human MDA-MB-231 cells proteomes after 30 mins by SDS-PAGE gel fluorescence assay; format: cell-based
Target sequence in this assay (O75884 whole entry, looked up): as the sequence (O75884 whole entry) above

Serine hydrolase RBBP9 [5] = target: T1, Serine hydrolase RBBP9; test: Displacement of fluorophosphate-rhodamine from recombinant RBBP9 transfected in mouse brain membrane proteomes at 200 uM after 30 mins by SDS-PAGE gel fluorescence assay; format: cell membranes
Target sequence in this assay (O75884 whole entry, looked up): as the sequence (O75884 whole entry) above

Serine hydrolase RBBP9 [6] = target: T1, Serine hydrolase RBBP9; test: Displacement of fluorophosphate-rhodamine from recombinant RBBP9 transfected in mouse brain membrane proteomes after 30 mins by SDS-PAGE gel fluorescence assay; format: cell membranes
Target sequence in this assay (O75884 whole entry): as above

[7] = target: T2, Glutathione S-transferase omega-1 (Homo sapiens) (UniProt P78417); test: Displacement of phenylsulphonate-rhodamine from GSTO1 in human MDA-MB-231 cells proteomes at 20 uM after 30 mins by SDS-PAGE gel fluorescence assay; format: cell-based
T2 sequence (whole entry): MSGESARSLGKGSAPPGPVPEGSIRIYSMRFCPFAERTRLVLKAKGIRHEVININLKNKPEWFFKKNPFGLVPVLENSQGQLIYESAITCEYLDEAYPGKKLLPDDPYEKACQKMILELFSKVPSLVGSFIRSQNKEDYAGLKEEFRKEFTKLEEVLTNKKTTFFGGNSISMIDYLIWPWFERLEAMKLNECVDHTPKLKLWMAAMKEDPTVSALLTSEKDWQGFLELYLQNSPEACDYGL

Row | inhibition (Serine hydrolase RBBP9 [2]) [%] | Compound | other results
1 | 78 | C/C(=N\OC(=O)c1ccc(Cl)cc1)c1nccs1 | IC50 (Serine hydrolase RBBP9 [1]): 1.9 µM; inhibition (Serine hydrolase RBBP9 [3]): 80%; inhibition (Serine hydrolase RBBP9 [4]): inactive; Activity (Serine hydrolase RBBP9 [5]): inactive
2 | 62 | C/C(=N\OC(=O)c1ccccc1)c1nccs1 | 
3 | 66 | C/C(=N\OC(=O)c1ccc(I)cc1)c1nccs1 | 
4 | 46 | C/C(=N\OC(=O)c1cccc(C(F)(F)F)c1)c1nccs1 | 
5 | 60 | COc1ccc(C(=O)O/N=C(\C)c2nccs2)cc1 | IC50 (Serine hydrolase RBBP9 [1]): 9.2 µM; inhibition (Serine hydrolase RBBP9 [3]): 39%; inhibition (Serine hydrolase RBBP9 [4]): inactive
6 | 63 | C/C(=N\OC(=O)c1cccc(Cl)c1)c1nccs1 | 
7 | 64 | C/C(=N\OC(=O)c1ccccc1F)c1nccs1 | 
8 | 15 | C/C(=N\OC(=O)c1ccc([N+](=O)[O-])cc1)c1nccs1 | 
9 | 66 | C/C(=N\OC(=O)c1cc(F)ccc1F)c1nccs1 | 
10 | 76 | C/C(=N\OC(=O)c1ccc(F)cc1)c1nccs1 | IC50 (Serine hydrolase RBBP9 [1]): 5.7 µM
11 | 14 | C/C(=N\OC(=O)c1c(-c2c(F)cccc2Cl)noc1C)c1nccs1 | 

Second part, the compound before the results:

Row | Compound | inhibition (Serine hydrolase RBBP9 [2]) [%] | other results
12 | C/C(=N\OC(=O)c1c(-c2ccccc2Cl)noc1C)c1nccs1 | 17 | 
13 | C/C(=N\OC(=O)c1c(-c2c(Cl)cccc2Cl)noc1C)c1nccs1 | 8 | 
14 | COc1ccc(C(=O)ON=C2C(C)=CC(=O)C=C2C)cc1 | 48 | 
15 | COc1ccc(C(=O)ON=C2C=C(C)C(=O)C(C)=C2)cc1 | 93 | IC50 (Serine hydrolase RBBP9 [1]): 1.5 µM; IC50 (Serine hydrolase RBBP9 [6]): 1.5 µM
16 | C/C(=N\OC(=O)c1ccc(-c2ccccc2)cc1)c1nccs1 | 4 | 
17 | CC(=O)O/N=C(\C)c1nccs1 | 0 | 
18 | C/C(=N\OC(=O)C1CCCCC1)c1nccs1 | 91 | IC50 (Serine hydrolase RBBP9 [1]): 0.64 µM
19 | CC1=CC(=NOC(=O)/C=C/c2ccccc2)C=C(C)C1=O | 78 | IC50 (Serine hydrolase RBBP9 [1]): 1.2 µM; inhibition (Serine hydrolase RBBP9 [3]): 79%; inhibition [7]: Active
20 | C/C(=N\OC(=O)N1CCCCC1)c1nccs1 | 0 | 
21 | COc1ccc(C(=O)O/N=C2/C=C(C)C(=O)C=C2C)cc1 | 76 | 
22 | C#CCCC(=O)O/N=C(\C)c1nccs1 | 42 | 
23 | C/C(=N\OC(=O)/C=C/c1ccccc1)c1nccs1 | 42 | 
24 | CC[C@H]1CN2CCc3cc(OC)c(OC)cc3[C@@H]2C[C@@H]1CC1NCCc2cc(OC)c(OC)cc21 (single isomer, unassigned) [EMETINE] |  | IC50 (Serine hydrolase RBBP9 [1]; hek-293t): 7.8 µM

— ChEMBL document CHEMBL1156321, “Oxime esters as selective, covalent inhibitors of the serine hydrolase retinoblastoma-binding protein 9 (RBBP9)” (Bioorg Med Chem Lett, 2010)
